Columns and labels:
endometrium = test: effects on the endometrium (summary statement)
[1] = tested on: Normal human dermal fibroblasts (HDF); test: growth of normal human skin fibroblasts (negative control); assay type: cell-based; conditions: concentration of 20 μg/ml
Description: The study analysis was carried out on an passaged MCF-7 human cells culture culture (breast adenocarcinoma). Normal human dermal fibroblasts (HDF) of early passages were used as a negative control. The cells were cultivated in Carrel vials in DMEM/F12 medium (Biolot) with 1.0% of antibiotic-free fetal bovine embryonic serum (Biolot) added in the 5% CO2 atmosphere, at 37° C.
The cells were seeded on Carrel vials at 50×10^4 cells per flask. To study the proliferative activity of the cells under conditions of sulfatase inhibition, 24 hours after seeding the culture medium was […], and then these tumor cell lines were incubated for various periods of time (24 to 72 hrs). The inhibitor was dissolved in DMSO. […] To exclude the cytotoxic effect of DMSO, a control sample comprising DMSO without sulfatase inhibitor was prepared. To exclude nonspecific detrimental effects of the compounds, normal human skin fibroblasts were used. Then the cells were detached with the versene-trypsin solution (Biolot), plated onto Carrel vials containing a fresh complete culture medium. The cells were counted when untreated control cells reached the maximum cell density per unit of surface area of a culture flask (monolayer), and their number was set as 100%. The proliferative activity of all of the studied cell cultures exposed to sulfatase inhibitors was determined in triplicate.

For `CC1(C)CC(=O)[C@@]2(C)CCc3c(ccc4cc(OS(N)(=O)=O)ccc34)[C@@H]2C1` [medicament, 3-O-sulfamate-16,16-dimethyl-D-homoequilenin], the “negative effects on the endometrium” value (endometrium) was “absence of negative effects” and the “growth of human skin fibroblasts” value [1] was “does not influence the growth”.

Source: patent publication US20220105058A1, “USE OF 3-O-SULFAMATE-16,16-DIMETHYL-D-HOMOEQUILENIN TO TREAT ONCOLOGICAL DISEASES” (priority 2018, published 2022)
